Experimental data as given in patent publication US20240018136A1, “CDK Inhibitors And Their Use As Pharmaceuticals” (Prelude Therapeutics, Incorporated, priority 2022, published 2024).
pIC50: −log10 of the molar value.

Tests used:
CDK2/Cyclin E2 = CDK2/Cyclin E2 (Homo sapiens, UniProt P24941); assay: CDK2/CyclinE2 enzymatic activity assay (TR-FRET); assay type: biochemical; settings: ATP 1 mM final, read-out: CDK2_E1 IC50
Method in brief: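 Insect-cell-expressed CDK2/Cyclin E2 (1 nM), ULight-4E-BP1 (50 nM) and ATP (1 mM) in HEPES pH 7.4 buffer were preincubated 20 min at RT with compound (9-dose, 3-fold), started with 10 mM MgCl2 and run 45 min at 37 °C. EDTA/Eu-anti-P-4E-BP1 stop, 60 min TR-FRET detection; IC50 from 4-parameter Hill fit.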

CDK4/Cyclin D1 = target: T1, CDK4/Cyclin D1 (Homo sapiens, UniProt P11802); assay: CDK4/CyclinD1 enzymatic activity assay (TR-FRET); assay type: biochemical; settings: ATP 2 mM final, read-out: CDK4_D1 IC50
T1 construct: purchased ProQinase; host or cells: insect cell
T1 sequence (P11802 whole entry): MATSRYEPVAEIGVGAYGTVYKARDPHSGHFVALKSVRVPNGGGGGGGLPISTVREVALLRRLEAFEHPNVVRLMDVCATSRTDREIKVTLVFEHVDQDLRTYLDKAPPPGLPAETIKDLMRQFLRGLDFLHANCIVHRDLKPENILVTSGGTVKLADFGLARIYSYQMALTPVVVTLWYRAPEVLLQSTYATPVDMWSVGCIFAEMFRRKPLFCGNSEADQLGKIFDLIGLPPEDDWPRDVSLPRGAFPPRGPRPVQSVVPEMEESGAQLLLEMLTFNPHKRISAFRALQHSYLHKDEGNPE
T1 sequence (P24385 whole entry partner): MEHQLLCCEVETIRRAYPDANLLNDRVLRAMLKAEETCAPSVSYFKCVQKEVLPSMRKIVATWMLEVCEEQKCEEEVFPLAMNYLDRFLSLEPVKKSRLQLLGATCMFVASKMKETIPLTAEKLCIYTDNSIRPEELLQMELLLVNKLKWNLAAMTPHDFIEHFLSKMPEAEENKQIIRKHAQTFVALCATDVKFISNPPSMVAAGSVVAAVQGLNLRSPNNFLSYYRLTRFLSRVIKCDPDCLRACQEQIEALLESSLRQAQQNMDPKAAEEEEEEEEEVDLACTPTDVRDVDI
Method in brief: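 Insect-cell-expressed CDK4/Cyclin D1 (1 nM) phosphorylated ULight-4E-BP1 peptide (100 nM) at 2 mM ATP in HEPES pH 7.4 buffer after 20 min compound preincubation. Reaction started with 10 mM MgCl2, ran 45 min at 37 °C, then EDTA quench and Eu-anti-phospho-4E-BP1 TR-FRET detection. IC50 from 9-point 3-fold dilutions, 4-parameter fit.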

OVCAR3 p-RB = assay: pRB ICW assay in OVCAR3 cells; assay type: cell-based; settings: Homo sapiens, OVCAR-3, incubated with compound for 2 hours
Method in brief: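 OVCAR3 cells were treated 2 h at 37 °C with a 9-point half-log compound series, in duplicate, with 10 μM reference compound as maximum inhibition. Cells were then fixed, permeabilized and stained with anti-phospho-RB plus DRAQ5. In-cell western intensities were read at 700/800 nm on Odyssey CLx.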

## Cc1ncc(-c2nc(NC3CCN(S(=O)(=O)N(C)C)CC3)ncc2C(F)(F)F)s1 [Example 47, N,N-Dimethyl-4-((4-(2-methylthiazol-5-yl)-5-(trifluoromethyl)pyrimidin-2-yl)amino)piperidine-1-sulfonamide]
CDK2/Cyclin E2
  pIC50: ≥ 7.00
CDK4/Cyclin D1
  pIC50: 6.00 to 7.00
OVCAR3 p-RB
  pIC50: < 6.00

## CCNS(=O)(=O)N1CCC(Nc2ncc(C(F)(F)F)c(-c3cnc(C)s3)n2)CC1 [Example 48, N-Ethyl-4-((4-(2-methylthiazol-5-yl)-5-(trifluoromethyl)pyrimidin-2-yl)amino)piperidine-1-sulfonamide]
CDK2/Cyclin E2
  pIC50: ≥ 7.00
CDK4/Cyclin D1
  pIC50: 6.00 to 7.00
OVCAR3 p-RB
  pIC50: < 6.00

## CCOc1ncc(-c2nc(NC3CCN(S(C)(=O)=O)CC3)ncc2C(F)(F)F)s1 [Example 52, 4-(2-Ethoxy-1,3-thiazol-5-yl)-N-(1-methylsulfonylpiperidin-4-yl)-5-(trifluoromethyl)pyrimidin-2-amine]
CDK2/Cyclin E2
  pIC50: ≥ 7.00
CDK4/Cyclin D1
  pIC50: ≥ 7.00
OVCAR3 p-RB
  pIC50: 6.00 to 7.00

## COC(=O)Nc1ncc(-c2nc(NC3CCN(S(C)(=O)=O)CC3)ncc2C(F)(F)F)s1 [Example 54, Methyl N-[5-[2-[(1-methylsulfonylpiperidin-4-yl)amino]-5-(trifluoromethyl)pyrimidin-4-yl]-1,3-thiazol-2-yl]carbamate]
CDK2/Cyclin E2
  pIC50: ≥ 7.00
CDK4/Cyclin D1
  pIC50: 6.00 to 7.00
OVCAR3 p-RB
  pIC50: < 6.00

## CS(=O)(=O)N1CCC(Nc2ncc(C(F)(F)F)c(-c3cnc(NC(=O)C(F)(F)F)s3)n2)CC1 [Example 57, 2,2,2-Trifluoro-N-[5-[2-[(1-methylsulfonylpiperidin-4-yl)amino]-5-(trifluoromethyl)pyrimidin-4-yl]-1,3-thiazol-2-yl]acetamide]
CDK2/Cyclin E2
  pIC50: ≥ 7.00
CDK4/Cyclin D1
  pIC50: ≥ 7.00
OVCAR3 p-RB
  pIC50: < 6.00

## Cc1ncc(-c2nc(NC3CCN(S(=O)(=O)c4cn(C)cn4)CC3)ncc2C(F)(F)F)s1 [Example 58, N-[1-(1-Methylimidazol-4-yl)sulfonylpiperidin-4-yl]-4-(2-methyl-1,3-thiazol-5-yl)-5-(trifluoromethyl)pyrimidin-2-amine]
CDK2/Cyclin E2
  pIC50: ≥ 7.00
CDK4/Cyclin D1
  pIC50: ≥ 7.00
OVCAR3 p-RB
  pIC50: 6.00 to 7.00

## Cc1ncc(-c2nc(NC3CCN(S(=O)(=O)c4ccn(C)n4)CC3)ncc2C(F)(F)F)s1 [Example 59, N-[1-(1-Methylpyrazol-3-yl)sulfonylpiperidin-4-yl]-4-(2-methyl-1,3-thiazol-5-yl)-5-(trifluoromethyl)pyrimidin-2-amine]
CDK2/Cyclin E2
  pIC50: ≥ 7.00
CDK4/Cyclin D1
  pIC50: ≥ 7.00
OVCAR3 p-RB
  pIC50: 6.00 to 7.00

## Cc1ncc(-c2nc(NC3CCN(S(=O)(=O)c4cnn(C)c4)CC3)ncc2C(F)(F)F)s1 [Example 60, N-[1-(1-Methylpyrazol-4-yl)sulfonylpiperidin-4-yl]-4-(2-methyl-1,3-thiazol-5-yl)-5-(trifluoromethyl)pyrimidin-2-amine]
CDK2/Cyclin E2
  pIC50: ≥ 7.00
CDK4/Cyclin D1
  pIC50: ≥ 7.00
OVCAR3 p-RB
  pIC50: 6.00 to 7.00

## Cc1ncc(-c2nc(NC3CCN(S(=O)(=O)CCO)CC3)ncc2C(F)(F)F)s1 [Example 61, 2-[4-[[4-(2-methyl-1,3-thiazol-5-yl)-5-(trifluoromethyl)pyrimidin-2-yl]amino]piperidin-1-yl]sulfonylethanol]
CDK2/Cyclin E2
  pIC50: ≥ 7.00
CDK4/Cyclin D1
  pIC50: ≥ 7.00
OVCAR3 p-RB
  pIC50: 6.00 to 7.00

## CN(C)c1ncc(-c2nc(NC3CCN(S(C)(=O)=O)CC3)ncc2C(F)F)s1 [Example 62, 5-[5-(Difluoromethyl)-2-[(1-methylsulfonylpiperidin-4-yl)amino]pyrimidin-4-yl]-N,N-dimethyl-1,3-thiazol-2-amine]
CDK2/Cyclin E2
  pIC50: 6.00 to 7.00
CDK4/Cyclin D1
  pIC50: 6.00 to 7.00
OVCAR3 p-RB
  pIC50: < 6.00

## CS(=O)(=O)N1CCC(Nc2ncc(C(F)(F)F)c(-c3cnc(CN)s3)n2)CC1 [Example 64, 4-[2-(Aminomethyl)-1,3-thiazol-5-yl]-N-(1-methylsulfonylpiperidin-4-yl)-5-(trifluoromethyl)pyrimidin-2-amine]
CDK2/Cyclin E2
  pIC50: ≥ 7.00
CDK4/Cyclin D1
  pIC50: 6.00 to 7.00
OVCAR3 p-RB
  pIC50: < 6.00
